According to article PMC11714206, “Massively Parallel Screening of Toll/Interleukin‐1 Receptor (TIR)‐Derived Peptides Reveals Multiple Toll‐Like Receptors (TLRs)‐Targeting Immunomodulatory Peptides” (Advanced Science, 2024):
Values belong to the sequence of their own block, whether it stands above or below them.

Target: T1, MyD88^TIR (Homo sapiens, UniProt Q99836)
T1 construct: MyD88 (residues 148–296); 6xHis; made in house; host or cells: E. coli BL21 (DE3)
Assay: T‐Surf phage library (P8 and P3) selection against MyD88^TIR, four rounds, NGS read counts
Format: binding
Settings: for P3_MyD88 Rank (after) / P3_MyD88 Rank (before): P3 library; for P8_MyD88 Rank (after) / P8_MyD88 Rank (before): P8 library; for Population: 4th round of selection against MyD88 TIR, share of NGS reads
In short: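 P8 and P3 T‐Surf libraries panned against plate-coated TIR domains (5 µg mL^−1), 1 h binding at RT, acid elution and TG1/helper-phage amplification per round. After four rounds, pools were PCR-barcoded and sequenced (NovaSeq, 100 bp paired-end, Phred ≥30); peptides ranked by read counts.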

[1] = P3_MyD88: rank by count after grouping
[2] = P3_MyD88: rank by count before grouping
[3] = P8_MyD88: rank by count after grouping
[4] = P8_MyD88: rank by count before grouping
[5] = 4R selection against MyD88, rank after grouping
[6] = 4R selection against MyD88, rank before grouping
[7] = selection against MyD88, rank after grouping
[8] = selection against MyD88, rank before grouping
[9] = P8_MyD88: rank by NGS read count after grouping
[10] = P8_MyD88: rank by NGS read count before grouping
[11] = P8_MyD88 pool: P8 T-Surf phage library
[12] = selection against MyD88 TIR, rank by count after grouping
[13] = selection against MyD88 TIR, rank by count before grouping
[14] = selection against MyD88, rank by count after grouping
[15] = selection against MyD88, rank by count before grouping
[16] = P3_MyD88 pool: P3 T-Surf phage library

T1 sequence (Q99836 148-296): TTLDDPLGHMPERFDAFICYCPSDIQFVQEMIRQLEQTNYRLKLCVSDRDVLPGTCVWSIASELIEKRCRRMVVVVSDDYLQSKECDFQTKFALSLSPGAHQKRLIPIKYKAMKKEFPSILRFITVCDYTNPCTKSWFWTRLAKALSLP

Sequence: SELRVVDDGSVSPLVT
- Rank (after) [1]: 182
- Rank (before) [2]: 3029

Sequence: SELSVVDDGSVSPLGM
- Rank (after) [1]: 472
- Rank (before) [2]: 3068

Sequence: QGDPSYRLTLHYRDVN
- P3_MyD88 Rank (after) [5]: 591
- P3_MyD88 Rank (before) [6]: 2866

Sequence: SIWWILNELQEILNYQ
- P8_MyD88 Rank (after) [7]: 542
- P8_MyD88 Rank (before) [8]: 3800

Sequence: DHHMDLTRGKAIKPEILG
- P3_MyD88 Rank (after) [5]: 616
- P3_MyD88 Rank (before) [6]: 2061

Sequence: DRSIWDRLLYSLHVTE
- Rank (after) [9]: 996
- Rank (before) [10]: 3141

Sequence: FDARTWFFQEMGIIVE
- P8_MyD88 Rank (after) [5]: 603
- P8_MyD88 Rank (before) [6]: 1307

Sequence: SSRRERLWRLLELSKK
- Rank (after) [1]: 424
- Rank (before) [2]: 3274

Sequence: SWYLDEVAKIIDAMKE
- Rank (after) [3]: 133
- Rank (before) [4]: 144
- Population [11]: 0.0116%

Sequence: YYLDPSHLRKQTGSLAKAFA
- P3_MyD88 Rank (after) [12]: 224
- P3_MyD88 Rank (before) [13]: 1463

Sequence: MFGGDSFHDFLELISM
- Rank (after) [3]: 391
- Rank (before) [4]: 3656

Sequence: DPQDMEWFYERLVSLIL
- P8_MyD88 Rank (after) [5]: 602
- P8_MyD88 Rank (before) [6]: 2975

Sequence: KNLLNALMSKNIRTFM
- P3_MyD88 Rank (after) [5]: 622
- P3_MyD88 Rank (before) [6]: 3789

Sequence: WALNELLKILHARELF
- Rank (after) [3]: 414
- Rank (before) [4]: 1546

Sequence: DPQDLQWFYERLVSLL
- Population [11]: 0.03%

Sequence: YLLAGDFWIFFTLLTA
- P8_MyD88 Rank (after) [14]: 738
- P8_MyD88 Rank (before) [15]: 1964

Sequence: YLLLSEFHSELALRPL
- P8_MyD88 Rank (after) [5]: 637
- P8_MyD88 Rank (before) [6]: 2016

Sequence: NQWRHALTAEANLSGW
- Rank (after) [1]: 408
- Rank (before) [2]: 3472

Sequence: RVAHEISTKMKIFATI
- P3_MyD88 Rank (after) [7]: 559
- P3_MyD88 Rank (before) [8]: 2682

Sequence: SDLRVVDDGSVSPLAM
- P3_MyD88 Rank (after) [14]: 711
- P3_MyD88 Rank (before) [15]: 3005

Sequence: SSFREGRWRLLELSKK
- Population [16]: 0.0032%

Sequence: PQDLGWYYERLVSLIL
- Rank (after) [9]: 888
- Rank (before) [10]: 3421

Sequence: WALNELQKILNAKETI
- Rank (after) [9]: 900
- Rank (before) [10]: 1553

Sequence: EWIRTAASGAERTSA
- Rank (after) [1]: 388
- Rank (before) [2]: 2178

Sequence: PQVLGWFYERLVSLIL
- Rank (after) [3]: 447
- Rank (before) [4]: 3414

Sequence: NHHLDLPRGKAIKPEILG
- Population [16]: 0.00524%

Sequence: KLDSAMIIKVQRWREA
- P3_MyD88 Rank (after) [5]: 618
- P3_MyD88 Rank (before) [6]: 3698

Sequence: DPQDLEWFYERLVSLL
- Population [11]: 0.0224%

Sequence: SLLYDHLRWLGIRAFL
- P8_MyD88 Rank (after) [7]: 541
- P8_MyD88 Rank (before) [8]: 3759

Sequence: LEANDSLFWDRLIRMIE
- P8_MyD88 Rank (after) [5]: 635
- P8_MyD88 Rank (before) [6]: 3374

The remaining lines, values ahead:

- Rank (after) [3]: 387
- Rank (before) [4]: 2381
Sequence: DFSHFWLFEARGDA

- Rank (after) [1]: 464
- Rank (before) [2]: 3019
Sequence: SELRVVDDGRVSPMAM

- P3_MyD88 Rank (after) [7]: 485
- P3_MyD88 Rank (before) [8]: 3267
Sequence: SSYRQGLWRLLELSKK

- Rank (after) [1]: 419
- Rank (before) [2]: 3517
Sequence: NQWRNALTATANLSGC

- P8_MyD88 Rank (after) [14]: 694
- P8_MyD88 Rank (before) [15]: 2043
Sequence: YLRADDSCSWEKLRYA

- P8_MyD88 Rank (after) [14]: 763
- P8_MyD88 Rank (before) [15]: 1399
Sequence: WALAELLKILYAKEPM

- P3_MyD88 Rank (after) [12]: 228
- P3_MyD88 Rank (before) [13]: 2269
Sequence: LVALEISKKMTIFATI

- P3_MyD88 Rank (after) [5]: 652
- P3_MyD88 Rank (before) [6]: 2057
Sequence: DHHLNLPRGKSVKPEILG

- P8_MyD88 Rank (after) [14]: 750
- P8_MyD88 Rank (before) [15]: 3251
Sequence: LGYHWIDWAYSVGIED

- P8_MyD88 Rank (after) [12]: 264
- P8_MyD88 Rank (before) [13]: 550
Sequence: DWVWDYLLPNLEGQR

- Rank (after) [9]: 1015
- Rank (before) [10]: 3424
Sequence: PQDLAWLYERPLSLIL

- Rank (after) [1]: 386
- Rank (before) [2]: 2276
Sequence: LVAHELSNKMKSFATI

- Rank (after) [1]: 122
- Rank (before) [2]: 3476
Sequence: NQWRNSRTAAANLSGW

- P8_MyD88 Rank (after) [7]: 503
- P8_MyD88 Rank (before) [8]: 3761
Sequence: SPWALYELAMIIEAM

- Rank (after) [9]: 977
- Rank (before) [10]: 2720
Sequence: DPQDLVWFYKRLFSQM

- Rank (after) [1]: 135
- Rank (before) [2]: 3273
Sequence: SSLREGLWRLQELSKK

- Rank (after) [1]: 416
- Rank (before) [2]: 2389
Sequence: LSRVPSVHDFRGLMSI

- P8_MyD88 Rank (after) [12]: 282
- P8_MyD88 Rank (before) [13]: 612
Sequence: HFAFSSWALDELANIL

- P3_MyD88 Rank (after) [5]: 585
- P3_MyD88 Rank (before) [6]: 2346
Sequence: LQNQWKLALTNSGFHTFRDND

- P8_MyD88 Rank (after) [7]: 570
- P8_MyD88 Rank (before) [8]: 1770
Sequence: YASCDDFDYYLETAVLLRHL
